How the values were obtained:
P2X7R [1] = target: T1, P2X7R (Rattus norvegicus, UniProt Q64663); settings: concentrations of 10 to 300 μM; cited from earlier work
T1 sequence (Q64663 1-595): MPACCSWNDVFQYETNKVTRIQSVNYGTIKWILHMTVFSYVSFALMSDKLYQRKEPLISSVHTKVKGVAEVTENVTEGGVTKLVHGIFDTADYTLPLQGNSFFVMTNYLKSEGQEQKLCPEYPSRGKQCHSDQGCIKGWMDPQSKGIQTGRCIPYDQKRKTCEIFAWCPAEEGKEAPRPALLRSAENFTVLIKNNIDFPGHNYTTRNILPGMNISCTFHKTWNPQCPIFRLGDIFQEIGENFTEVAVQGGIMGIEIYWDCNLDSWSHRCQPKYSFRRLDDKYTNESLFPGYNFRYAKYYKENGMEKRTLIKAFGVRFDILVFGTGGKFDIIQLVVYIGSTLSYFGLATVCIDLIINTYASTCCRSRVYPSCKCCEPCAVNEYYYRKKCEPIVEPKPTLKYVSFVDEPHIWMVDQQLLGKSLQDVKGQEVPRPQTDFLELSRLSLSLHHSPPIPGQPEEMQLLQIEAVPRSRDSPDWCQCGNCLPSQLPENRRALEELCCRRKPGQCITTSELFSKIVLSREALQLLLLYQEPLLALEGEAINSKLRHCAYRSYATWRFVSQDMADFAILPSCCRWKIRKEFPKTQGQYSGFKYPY

other P2X receptors = settings: cited from earlier work
P2X7R [2] = settings: cited from earlier work
mice = experiment: Porsolt's forced swim test; assay type: in vivo, mouse
Method: Further validation of role of P2X7R in affective disorders was performed by examining its expression pattern in response to stress and treatment with antidepressant drugs. […] In parallel, a control group of mice was given vehicle solution (i.e. without paroxetine) using the same treatment regiment while a second control group of mice was left undisturbed and stress-free (i.e. untreated) during the same period of the experiments. At the end of the long-term treatment, part of the mice of each experimental group were tested in the dark/light box (test of anxiety behaviour) and in the Porsolt's forced swim test (test of depressive-like behaviour) to confirm the effectiveness of the treatment (FIG. 5). […] The other part of the experimental groups (i.e. mice without test experience) were decapitated, brains rapidly removed and frozen at −80° C. until usage.
The effects of P2X7R inhibition on depressive-like behaviour was assessed 24 hours and 48 hours after infusion of siRNA, control or vehicle according to the standard test paradigm, the Porsolt's forced swim test (Porsolt et al., Arch. Int. Pharmacodym. 229 (1977), 327-336; Porsolt, Rev. Neurosci. 11 (2000), 53-58). […] Compared to vehicle application, no influence of control double stranded RNA (5′-[…]-3′) on floating behaviour (passive stress coping) was detected. […] This interpretation becomes moreover evident when the effects of antidepressants on passive stress coping behaviour in the forced swim test are visualized (FIG. 5). Passive stress coping behaviour increased after acute intrahippocampal injection (bilateral, dentate gyrus) of siRNA targeting P2X7R. The Porsolt's forced swim test is a standard test used to assess the effectiveness of antidepressants and it has been proven by many studies that the test is selectively sensitive for these effects, given that the right animal model is used. The paradigm has been widely used to test pharmaceutical compounds and to validate animal models of depression, which show an increase in passive behaviour as do the mice where P2X7R has been inhibited (siRNA).
The forced swim test is a standard test that measures primary stress-induced reductions in avoidance or escape, termed behavioural despair. The test is used to determine the effectiveness of antidepressants, test new pharmaceutical compounds and validate animal models of depression (Porsolt et al., Arch. Int. Pharmacodym. 229 (1977), 327-336; Porsolt, Rev. Neurosci. 11 (2000), 53-58; Rénéric et al., Behav. Brain Res. 136 (2002), 521-532; Page et al., Psychopharmacology 165 (2003), 194-201; Kelliher et al., Psychoneuroendocrinology 28 (2003), 332-347). The test consists of placing a mouse for a period of 5 minutes into a glass cylinder containing water. Under such circumstances, the mouse cannot touch the bottom of the cylinder and is thus forced to swim. Time, latency and frequency of struggling versus floating are scored as behavioural parameters. […] Increased struggling (i.e. active attempts to escape) indicates active coping behaviour that can be interpreted as an improvement of depression-like symptoms. For example, treatment with serotonergic antidepressants reduce the total time spent floating (Borsini, Neurosci. Biobehav. Rev. 19 (1995), 377-395; Redrobe and Bourin, Psychopharmacology 138 (1998), 198-206, and in parallel increases the time of active behaviour (i.e. swimming or struggling; Lucki et al., Psychopharmacology 155 (2001), 315-322).
The behaviour of individual mice was assessed using the Porsolt's forced swim test 24 hours after injection of vehicle solution, KN-62, or oATP. A pre-exposure of 5 minutes to the test was performed 15-17 minutes after administration of vehicle, KN-62, or oATP. A description of the Porsolt's forced swim test is given in example 9. […]

human P2X7R = target: T2, human P2X7R (Homo sapiens, UniProt Q99572); experiment: Calcium entry in HT-22 cells overexpressing human P2X7R (Fluo-4 AM); assay type: cell-based; settings: 20 μM BzATP or 50 μM tenidap
T2 construct: expressed in transfected cells
T2 sequence (Q99572 1-595): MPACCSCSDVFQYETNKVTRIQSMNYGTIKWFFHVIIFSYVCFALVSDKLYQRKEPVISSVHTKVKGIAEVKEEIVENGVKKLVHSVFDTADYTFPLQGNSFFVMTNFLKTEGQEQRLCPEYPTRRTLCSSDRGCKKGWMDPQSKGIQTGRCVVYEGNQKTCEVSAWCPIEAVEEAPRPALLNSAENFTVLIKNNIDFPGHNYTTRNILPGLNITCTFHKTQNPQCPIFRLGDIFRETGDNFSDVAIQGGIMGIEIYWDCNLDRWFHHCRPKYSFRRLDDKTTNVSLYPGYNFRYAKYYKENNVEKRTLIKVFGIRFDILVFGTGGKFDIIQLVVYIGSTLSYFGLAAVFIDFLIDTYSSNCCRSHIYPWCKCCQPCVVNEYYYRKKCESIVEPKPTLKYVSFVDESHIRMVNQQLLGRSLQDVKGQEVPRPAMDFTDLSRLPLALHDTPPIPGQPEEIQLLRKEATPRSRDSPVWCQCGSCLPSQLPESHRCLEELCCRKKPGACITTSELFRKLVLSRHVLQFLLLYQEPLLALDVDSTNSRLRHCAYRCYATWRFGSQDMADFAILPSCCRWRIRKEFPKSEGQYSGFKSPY
Description: Yet another method for identifying P2X7R agonists was devised by generating a immortalised mouse cell line that overexpresses the human P2X7R gene under the control of the human cytomegalovirus (CMV) early promoter/enhancer region. The human P2X7R cDNA was inserted into the pcDNA3.1 vector (Invitrogen) and transfected into the mouse hippocampal cell line HT-22 using Lipofectamine (Invitrogen) according to the manufacturer's specifications. One day after transfection, culture medium containing 500 μg/ml G418 was added to the cells. Resistant clones were separately isolated and cultured 14 days after applying the selection medium.
The agonistic activity of a compound was evaluated by measuring calcium entry in the cells that overexpress the human P2X7R. Cells were cultured in 96 well plates and incubated at 37° C. with 5% C02 DMEM with 10% foetal calf serum (Gibco) until they reached confluence. Cells were then loaded for one hour with 10 μM of Fluo4 AM (Molecular Probes). Fluo-4 AM is a fluorescent dye that binds to intracellular calcium. […] Agonist activity was detected by measuring an increase in calcium influx which results in increased binding to Fluo4 AM and increased fluorescence. Changes in fluorescence signal are measured using a Fluostar Optima plate reader (BMG biotech). […] Thus, both compound stimulated the activity of P2X7R which results in an influx of ions into the cells.

P2X7R [3] = assay type: in vivo, mouse
Method: The brains from stress-free mice were shock frozen, cut into 16 μm slices and fixed with paraformaldehyde for 5 minutes. The sections were blocked for 30 minutes at room temperature with 1:10 horse serum. All antibodies were diluted in TBST buffer (Tris-buffered saline with 0.05% Tween-20). The first antibody was used in a dilution 1:200 and incubated overnight. All washes were performed with TBST buffer. As a secondary antibody, an anti-goat IgG biotinylated (Vector Laboratories) was used and detection was performed using the streptavidin-biotin-horse-radish peroxidase complex system (Vector Laboratories) in combination with diaminobencidine. Slides were counterstained with toluidine blue using standard procedures. The same procedure in the absence of the primary antibody was performed as a negative control. As a positive control to test the Preservation of the tissue was verified with an antibody specific for the protein Patched1 (Santa Cruz Biotechnology). Patched1 was used as positive control since it stains all relevant brain structures and is not affected by stress or antidepressants.
At the end of the experiment, the mice were sacrificed and the brains were examined to confirm the location and efficiency of the siRNA injections. For this purpose the brains were cut into sections and the slides were stained by immunohistochemistry using the above mentioned protocols. […]

[4] = 100 nM KN-62 or 10 μM oATP, 1 μl each side, dentate gyrus, 24 hours after injection, DBA/201a mice

Which “opening of the cation channel activity of P2X7R” value (“opening” below) (P2X7R [1]) does the source give for `CC(C)NCC(O)COc1cccc2ccccc12` (racemic) [DL-propanolol] here?
The value was “without affecting”.

What about the “pore-forming activity of P2X7R” value (P2X7R [1]) of the same compound?
Its value is “inhibit the pore-forming activity”.

What does the source list for `Nc1ncnc2c1ncn2[C@@H]1O[C@H](COP(=O)(O)OP(=O)(O)OP(=O)(O)O)[C@@H](O)[C@H]1O` [ATP]?
ATP concentrations at which other P2X receptors activate (other P2X receptors): ≤ 100 µM; levels of ATP required to achieve activation of P2X7R (P2X7R [2]): > 1 mM

Which “opening” value (P2X7R [1]) does the source give for `CC(C)NC[C@@H](O)COc1cccc2ccccc12` [D-propanolol] here?
The value was “without affecting”.

And the “pore-forming activity of P2X7R” value (P2X7R [1])?
Its value is “inhibit the pore-forming activity”.

With `CN([C@@H](Cc1ccc(OS(=O)(=O)c2cccc3cnccc23)cc1)C(=O)N1CCN(c2ccccc2)CC1)S(=O)(=O)c1cccc2cnccc12` [KN-62, 1-(N,O-bis[5-isoquinolinesulphonyl]-N-methyl-L-tyrosyl)-4-phenylpiperazine] as the compound, how does the “active escape attempts (time, frequency, latency of struggling) in the forced swim test” value (mice; [4]) read?
Its value is “no changes”.

What about the “passive behaviour (time, frequency, latency of floating) in the forced swim test” value (mice; [4]) of the same compound?
Its value is “no changes”.

Which “opening” value (P2X7R [1]) does the source give for `CC(CCc1ccccc1)NCC(O)c1ccc(O)c(C(N)=O)c1` (stereo not drawn) [labetolol] here?
The value was “without affecting”.

What about the “pore-forming activity of P2X7R” value (P2X7R [1]) of the same compound?
The value was “inhibit the pore-forming activity”.

Which “passive stress coping behaviour (floating) in the forced swim test” value (mice; paroxetine by gavage, 10 mg/kg bodyweight twice per day, 28 days, male mice) does the source give for `Fc1ccc([C@@H]2CCNC[C@H]2COc2ccc3c(c2)OCO3)cc1` [paroxetine] here?
The value was “decreased”.

For `NC(=O)N1C(=O)/C(=C(\O)c2cccs2)c2cc(Cl)ccc21` [tenidap, 5-chloro-2,3-dihydro-2-oxo-3-(2-thienylcarbonyl)-indole-1-carboxamide], which “calcium influx (Fluo-4 AM fluorescence intensity)” value (human P2X7R) is on record?
The value was “rapid increase in fluorescence intensity”.

With “P2X7R specific siRNA: double stranded siRNA, 5′-GUGGGUCUUGCACAUGAUCTT-3′ and 5′-GAUCAUGUGCAAGACCCACTT-3′ annealed (chemistry not given here)” as the compound, how does the “local inflammation or infiltration at the hippocampus” value (P2X7R [3]; mouse, in vivo) read?
Its value is “did not produce any sign of local inflammation or infiltration”.

And the “inhibition of P2X7R protein expression” value (P2X7R [3]; siRNA injected near the dentate gyrus, compared to vehicle or control double stranded RNA)?
The value was 80%.

What about the “floating behaviour (passive stress coping) in the forced swim test” value (mice; intrahippocampal bilateral (dentate gyrus), 0.1 nmol/μl, 1 μl per side, 24 hours and 48 hours after infusion) of the same compound?
The value was “significant increase in passive behaviour”.
